The Ki is a dissociation constant, usually derived from enzyme kinetics or from competition with a known ligand. Low readings indicate a stronger hold on the target, high ones a looser hold on the target.

The text below walks through data of patent US6020521A, “Macrolide LHRH antagonists” (Abbott Laboratories, priority 1998, dated 2000).

In this assay the target is T1, LHRH rat pituitary receptor (Rattus norvegicus, UniProt P30969).
T1 construct: from tissue; host or cells: rat pituitary
T1 sequence (P30969 1-327): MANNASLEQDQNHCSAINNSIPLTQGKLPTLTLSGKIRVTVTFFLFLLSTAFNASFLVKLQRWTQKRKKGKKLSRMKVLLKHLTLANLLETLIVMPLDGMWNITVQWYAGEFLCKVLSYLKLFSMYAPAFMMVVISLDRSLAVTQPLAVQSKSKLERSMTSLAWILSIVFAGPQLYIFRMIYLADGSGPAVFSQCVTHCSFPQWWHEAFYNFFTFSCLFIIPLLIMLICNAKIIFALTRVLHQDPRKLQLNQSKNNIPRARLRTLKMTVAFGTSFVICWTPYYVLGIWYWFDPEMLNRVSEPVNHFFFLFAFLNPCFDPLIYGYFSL
The assay can be described thus: LHRH rat pituitary receptor binding (pKI). The following applies: receptor binding affinity, negative logarithm of the equilibrium dissociation constants. The procedure:
Representative compounds of the present invention were evaluated in in vitro tests for LHRH rat pituitary receptor binding (pKI) and for LH inhibition from rat pituitary cells for antagonist potency (pA2). The tests employed the methods detailed in F. Haviv, et al. J. Med. Chem., 32: 2340-2344 (1989). The receptor binding affinity (pKI) is the negative logarithm of the equilibrium dissociation constants.

Regarding `CC[C@H]1OC(=O)[C@H](C)[C@@H](OC(=O)N2C(=O)OC[C@@H]2C)[C@H](C)[C@@H](O[C@@H]2O[C@H](C)C[C@H](N(C)C3CCC3)[C@H]2O)[C@](C)(OC)C[C@@H](C)C(=O)[C@H](C)[C@H]2N(CCc3ccc(Cl)cc3)C(=O)O[C@]12C` [Example 24, 11-Deoxy-11-[carboxy(4-chlorophenethyl)amino]-3-O-[4-(S)-methyl-oxazolidin-2-one]carbamoyl-5-O-(3'-N-desmethyl-3'-N-cyclobutyl)desosaminyl-6-O-methyl-erythronolide A 11,12-(cyclic carbamate)], the Ki was 0.251 nM. With `CC[C@H]1OC(=O)[C@H](C)[C@@H](OC(=O)N2C(=O)OC[C@@H]2C)[C@H](C)[C@@H](O[C@@H]2O[C@H](C)C[C@H](N(C)CC3CCC3)[C@H]2O)[C@](C)(OC)C[C@@H](C)C(=O)[C@H](C)[C@H]2N(CCc3ccc(Cl)c(Cl)c3)C(=O)O[C@]12C` [Example 18, 11-Deoxy-11-[carboxy(3,4-dichlorophenethyl)amino]-3-O-[4-(S)-methyl-oxazolidin-2-one]carbamoyl-5-O-(3'-N-desmethyl-3'-N-cyclobutylmethyl)desosaminyl-6-O-methyl-erythronolide A 11,12-(cyclic carbamate)] the figure was 0.933 nM. To `CC[C@H]1OC(=O)[C@H](C)[C@@H](OC(=O)N2C(=O)OC[C@@H]2C)[C@H](C)[C@@H](O[C@@H]2O[C@H](C)C[C@H](N(CC3CC3)C(C)C)[C@H]2O)[C@](C)(OC)C[C@@H](C)C(=O)[C@H](C)[C@H]2N(CCc3ccc(F)c(Cl)c3)C(=O)O[C@]12C` [Example 56, 11-Deoxy-11-[carboxy(3-chloro-4-fluorophenethyl)amino]-3-O-[4-(S)-methyl-oxazolidin-2-one]carbamoyl-5-O-(3'-bis-N-desmethyl-3'-N-cyclopropylmethyl-3'-N-isopropyl)desosaminyl-6-O-methyl-erythronolide A 11,12-(cyclic carbamate)] belongs 0.12 nM; to `CC[C@H]1OC(=O)[C@H](C)[C@@H](OC(=O)N2C(=O)OC[C@@H]2C)[C@H](C)[C@@H](O[C@@H]2O[C@H](C)C[C@H](N(C)C(C)C)[C@H]2O)[C@](C)(OC)C[C@@H](C)C(=O)[C@H](C)[C@H]2N(CCc3ccc(F)cc3)C(=O)O[C@]12C` [Example 32, 11-Deoxy-11-[carboxy(4-fluorophenethyl)amino]-3-O-[4-(S)-methyl-oxazolidin-2-one]carbamoyl-5-O-(3'-N-desmethyl-3'-N-isopropyl)desosaminyl-6-O-methyl-erythronolide A 11,12-(cyclic carbamate)], 0.155 nM. With `CCCN(C(C)C)[C@H]1C[C@@H](C)O[C@@H](O[C@@H]2[C@@H](C)[C@H](OC(=O)N3C(=O)OC[C@@H]3C)[C@@H](C)C(=O)O[C@H](CC)[C@@]3(C)OC(=O)N(CCc4ccc(Cl)c(Cl)c4)[C@@H]3[C@@H](C)C(=O)[C@H](C)C[C@@]2(C)OC)[C@@H]1O` [Example 21, 11-Deoxy-11-[carboxy(3,4-dichlorophenethyl)amino]-3-O-[4-(S)-methyl-oxazolidin-2-one]carbamoyl-5-O-(3'-bis-N-desmethyl-3'-N-n-propyl-3'-N-isopropyl)desosaminyl-6-O-methyl-erythronolide A 11,12-(cyclic carbamate)] the figure was 0.245 nM; with `CC[C@H]1OC(=O)[C@H](C)[C@@H](OC(=O)N2C(=O)OC[C@@H]2C)[C@H](C)[C@@H](O[C@@H]2O[C@H](C)C[C@H](NC(C)C)[C@H]2O)[C@](C)(OC)C[C@@H](C)C(=O)[C@H](C)[C@H]2N(CCc3ccc(Cl)cc3)C(=O)O[C@]12C` [Example 7, 11-Deoxy-11-[carboxy(4-chlorophenethyl)amino]-5-O-(3'-bis-N-desmethyl-3'-N-isopropyl)desosaminyl-3-O-[4-(S)-methyl-oxazolidin-2-one]carbamoyl-6-O-methyl-erythronolide A 11,12-(cyclic carbamate)], 3.55 nM; with `CC[C@H]1OC(=O)[C@H](C)[C@@H](OC(=O)N2C(=O)OC[C@@H]2C)[C@H](C)[C@@H](O[C@@H]2O[C@H](C)C[C@H](N(C)C)[C@H]2O)[C@](C)(OC)C[C@@H](C)C(=O)[C@H](C)[C@H]2N(CCc3ccc(Cl)c(Cl)c3)C(=O)O[C@]12C` [Example 11, 11-Deoxy-11-[carboxy(3,4-dichlorophenethyl)amino]-3-O-[4-(S)-methyl-oxazolidin-2-one]carbamoyl-5-O-desosaminyl-6-O-methyl-erythronolide A 11,12-(cyclic carbamate)], 3.16 nM. `CC[C@H]1OC(=O)[C@H](C)[C@@H](OC(=O)N2C(=O)OC[C@@H]2C)[C@H](C)[C@@H](O[C@@H]2O[C@H](C)C[C@H](N(C)CC3CC3)[C@H]2O)[C@](C)(OC)C[C@@H](C)C(=O)[C@H](C)[C@H]2N(CCc3ccc(Cl)c(F)c3)C(=O)O[C@]12C` [Example 36, 11-Deoxy-11-[carboxy(4-chloro-3-fluorophenethyl)amino]-3-O-[4-(S)-methyl-oxazolidin-2-one]carbamoyl-5-O-(3'-N-desmethyl-3'-N-cyclopropylmethyl)desosaminyl-6-O-methyl-erythronolide A 11,12-(cyclic carbamate)] had a Ki of 3.72 nM. With `CC[C@H]1COC(=O)N1C(=O)O[C@H]1[C@H](C)[C@@H](O[C@@H]2O[C@H](C)C[C@H](N(C)CC3CC3)[C@H]2O)[C@](C)(OC)C[C@@H](C)C(=O)[C@H](C)[C@H]2N(CCc3ccc(Cl)c(Cl)c3)C(=O)O[C@]2(C)[C@@H](CC)OC(=O)[C@@H]1C` [Example 38, 11-Deoxy-11-[carboxy(3,4-dichlorophenethyl)amino]-3-O-[4-(S)-ethyl-oxazolidin-2-one]carbamoyl-5-O-(3'-N-desmethyl-3'-N-cyclopropylmethyl)desosaminyl-6-O-methyl-erythronolide A 11,12-(cyclic carbamate)] the figure was 6.76 nM; with `CC[C@H]1OC(=O)[C@H](C)[C@@H](OC(=O)N2C(=O)OC[C@@H]2C)[C@H](C)[C@@H](O[C@@H]2O[C@H](C)C[C@H](N(CC3CC3)CC3CC3)[C@H]2O)[C@](C)(OC)C[C@@H](C)C(=O)[C@H](C)[C@H]2N(CCc3ccc(Cl)c(F)c3)C(=O)O[C@]12C` [Example 44, 11-Deoxy-11-[carboxy(4-chloro-3-fluorophenethyl)amino]-3-O-[4-(S)-methyl-oxazolidin-2-one]carbamoyl-5-O-(3'-bis-N-desmethyl-3'-bis-N-cyclopropylmethyl)desosaminyl-6-O-methyl-erythronolide A 11,12-(cyclic carbamate)], 3.16 nM. On to `CC[C@H]1OC(=O)[C@H](C)[C@@H](OC(=O)N2COC[C@H]2C)[C@H](C)[C@@H](O[C@@H]2O[C@H](C)C[C@H](N(C)C(C)C)[C@H]2O)[C@](C)(OC)C[C@@H](C)C(=O)[C@H](C)[C@H]2N(CCc3ccc(Cl)cc3)C(=O)O[C@]12C` [Example 8, 11-Deoxy-11-[carboxy(4-chlorophenethyl)amino]-5-O-(3'-N-desmethyl-3'-N-isopropyl)desosaminyl-3-O-[4-(R)-methyl-oxazolidine]carbamoyl-6-O-methyl-erythronolide A 11,12-(cyclic carbamate)], for which the Ki was 11.7 nM. To `CC[C@H]1OC(=O)[C@H](C)[C@@H](OC(=O)N2C(=O)OC[C@@H]2C)[C@H](C)[C@@H](O[C@@H]2O[C@H](C)C[C@H](N(C)C3CCC3)[C@H]2O)[C@](C)(OC)C[C@@H](C)C(=O)[C@H](C)[C@H]2N(CCc3ccc(F)c(Cl)c3)C(=O)O[C@]12C` [Example 34, 11-Deoxy-11-[carboxy(3-chloro-fluorophenethyl)amino]-3-O-[4-(S)-methyl-oxazolidin-2-one]carbamoyl-5-O-(3'-N-desmethyl-3'-N-cyclobutyl)desosaminyl-6-O-methyl-erythronolide A 11,12-(cyclic carbamate)] belongs 0.0832 nM. With `CCCN(C)[C@H]1C[C@@H](C)O[C@@H](O[C@@H]2[C@@H](C)[C@H](OC(=O)N3C(=O)OC[C@@H]3C)[C@@H](C)C(=O)O[C@H](CC)[C@@]3(C)OC(=O)N(CCc4ccc(Cl)c(Cl)c4)[C@@H]3[C@@H](C)C(=O)[C@H](C)C[C@@]2(C)OC)[C@@H]1O` [Example 16, 11-Deoxy-11-[carboxy(3,4-dichlorophenethyl)amino]-3-O-[4-(S)-methyl-oxazolidin-2-one]carbamoyl-5-O-(3'-N-desmethyl-3'-N-n-propyl)desosaminyl-6-O-methyl-erythronolide A 11,12-(cyclic carbamate)] the figure was 3.98 nM; with `CC[C@H]1OC(=O)[C@H](C)[C@@H](OC(=O)N2C(=O)SC[C@@H]2C)[C@H](C)[C@@H](O[C@@H]2O[C@H](C)C[C@H](N(C)CC3CC3)[C@H]2O)[C@](C)(OC)C[C@@H](C)C(=O)[C@H](C)[C@H]2N(CCc3ccc(Cl)c(Cl)c3)C(=O)O[C@]12C` [Example 40, 11-Deoxy-11-[carboxy(3,4-dichlorophenethyl)amino]-3-O-[4-(S)-methyl-thiazolidin-2-one]carbamoyl-5-O-(3'-N-desmethyl-3'-N-cyclopropylmethyl)desosaminyl-6-O-methyl-erythronolide A 11,12-(cyclic carbamate)], 8.13 nM.
